# According to ChEMBL document CHEMBL4706683 (J Med Chem, 2021):
# The source made the active and inactive calls. The calls are words filed in the database; no cut-off is given here.
# Assays:
# [1] = test system: Plasmodium falciparum; assay: Antiplasmodial activity against synchronized ring stage Plasmodium falciparum 3D7 infected in human erythrocytes assessed as reduction in parasite growth incubated for 72 hrs by Giemsa staining based light microscopic method; format: functional, organism-based; settings: 3D7, Erythrocyte
# [2] = test system: Plasmodium falciparum; assay: Antiplasmodial activity against synchronized ring stage Plasmodium falciparum Dd2 infected in human erythrocytes assessed as reduction in parasite growth incubated for 72 hrs by Giemsa staining based light microscopic method; format: functional, organism-based; settings: Dd2, Erythrocyte
# [3] = test system: HepG2; assay: Cytotoxicity against human HepG2 cells assessed as reduction in cell viability incubated for 72 hrs by cell titer glo assay; format: cell-based; settings: HepG2, 72 h
# [4] = test system: HEK-293T; assay: Cytotoxicity against human HEK293T cells assessed as reduction in cell viability incubated for 72 hrs by cell titer glo assay; format: cell-based
# [5] = Selectivity index, ratio of IC50 for cytotoxicity against human HepG2 cells assessed to IC50 for antiplasmodial activity against synchronized ring stage Plasmodium falciparum 3D7 infected in human erythrocytes; format: toxicity, cell-based; settings: read-out: Ratio IC50
# [6] = Selectivity index, ratio of IC50 for cytotoxicity against human HEK293T cells assessed to IC50 for antiplasmodial activity against synchronized ring stage Plasmodium falciparum 3D7 infected in human erythrocytes; format: toxicity, cell-based; settings: read-out: Ratio IC50
# [7] = test system: Plasmodium falciparum; assay: Antiplasmodial activity against Plasmodium falciparum GB4 infected in human erythrocytes assessed as reduction in parasite growth incubated for 72 hrs by Giemsa staining based light microscopic method; format: functional, organism-based; settings: GB4, Erythrocyte
# [8] = test system: Plasmodium falciparum; assay: Antiplasmodial activity against artemisinin-resistant ring stage Plasmodium falciparum 6320 infected in human erythrocytes assessed as reduction in parasite growth incubated for 72 hrs by Giemsa staining based light microscopic method; format: functional, organism-based; settings: Plasmodium falciparum, 6320, Erythrocyte
# [9] = Half life in mouse liver microsomes incubated upto 45 mins in presence of NADPH by LC-MS/MS analysis; format: ADME, Microsome
# [10] = test system: Plasmodium yoelii; assay: Antiplasmodial activity against blood stage Plasmodium yoelii infected in Balb/c mouse assessed as reduction in parasitemia at 60 mg/kg, ip QD for 5 consecutive days and measured on day 30 by microscopic analysis; format: functional, organism-based; settings: time 5.0 day
# [11] = Toxicity in Balb/c mouse infected with sporozoites liver stage Plasmodium berghei assessed as animal death at 30 mg/kg, ip administered as single dose and measured upto 96 hrs; format: organism-based; settings: in vivo
# [12] = test system: Plasmodium falciparum; assay: Antiplasmodial activity against synchronized ring stage Plasmodium falciparum 3D7 infected in human erythrocytes assessed as new ring stage formation at 10 times IC50 incubated for 12 hrs followed by compound washout and measured at 50 hrs by […] analysis; format: functional, organism-based; settings: Erythrocyte
# [13] = test system: Plasmodium falciparum; assay: Antimalarial activity against synchronized schizont stage transgenic Plasmodium falciparum 3D7 with C-terminal 3xTY1-fused HDAC1 knockdown assessed as parasite growth inhibition pretreated with glucosamine followed by compound treatment and incubated for 4 hrs followed by compound washout for thrice and subsequent culturing for 68 hrs by SYBR Green 1 staining based analysis; format: functional, organism-based
# [14] = test system: Plasmodium falciparum; assay: Antimalarial activity against synchronized schizont stage transgenic Plasmodium falciparum 3D7 with C-terminal glmS-fused HDAC1 knockdown assessed as parasite growth inhibition pretreated with glucosamine followed by compound treatment and incubated for 4 hrs followed by compound washout for thrice and subsequent culturing for 68 hrs by SYBR Green 1 staining based analysis; format: functional, organism-based
# [15] = test system: Plasmodium falciparum; assay: Antimalarial activity against synchronized schizont stage transgenic Plasmodium falciparum 3D7 with C-terminal 3xTY1-fused HDAC2 knockdown assessed as parasite growth inhibition pretreated with glucosamine followed by compound treatment and incubated for 4 hrs followed by compound washout for thrice and subsequent culturing for 68 hrs by SYBR Green 1 staining based analysis; format: functional, organism-based
# [16] = target: Histone deacetylase 2 (Homo sapiens, UniProt Q92769); assay: Inhibition of human HDAC2 expressed in Sf9 cells using Ac-peptide as substrate preincubated for 15 mins followed by substrate and trypsin addition and further incubated for 60 mins
# [17] = target: T1, Histone deacetylase 8 (Homo sapiens, UniProt Q9BY41); assay: Inhibition of full length human C-terminal His-tagged HDAC8 expressed in baculovirus infected Sf9 cells using Ac-peptide as substrate preincubated for 15 mins followed by substrate addition and incubated for 120 mins followed by trypsin addition and further incubated for 240 mins
# T1 sequence (Q9BY41 whole entry): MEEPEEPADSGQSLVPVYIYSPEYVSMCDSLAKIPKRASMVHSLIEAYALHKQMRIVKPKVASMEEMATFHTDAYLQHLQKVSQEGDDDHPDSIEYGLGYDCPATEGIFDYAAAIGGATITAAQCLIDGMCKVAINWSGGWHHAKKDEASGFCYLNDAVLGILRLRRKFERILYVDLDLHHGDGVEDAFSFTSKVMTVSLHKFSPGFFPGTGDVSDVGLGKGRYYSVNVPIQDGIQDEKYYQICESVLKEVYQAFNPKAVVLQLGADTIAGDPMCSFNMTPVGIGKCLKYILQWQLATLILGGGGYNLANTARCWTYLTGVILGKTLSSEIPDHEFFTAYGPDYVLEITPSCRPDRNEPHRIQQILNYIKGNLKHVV
# [18] = target: T2, NAD-dependent protein deacetylase sirtuin-2 (Homo sapiens, UniProt Q8IXJ6); assay: Inhibition of human C-terminal His-tagged SIRT2 (50 to 356 residues) expressed in Escherichia coli using Ac-peptide as substrate preincubated for 15 mins followed by substrate addition and incubated for 240 mins followed by trypsin addition and further incubated for 120 mins
# T2 sequence (Q8IXJ6 whole entry): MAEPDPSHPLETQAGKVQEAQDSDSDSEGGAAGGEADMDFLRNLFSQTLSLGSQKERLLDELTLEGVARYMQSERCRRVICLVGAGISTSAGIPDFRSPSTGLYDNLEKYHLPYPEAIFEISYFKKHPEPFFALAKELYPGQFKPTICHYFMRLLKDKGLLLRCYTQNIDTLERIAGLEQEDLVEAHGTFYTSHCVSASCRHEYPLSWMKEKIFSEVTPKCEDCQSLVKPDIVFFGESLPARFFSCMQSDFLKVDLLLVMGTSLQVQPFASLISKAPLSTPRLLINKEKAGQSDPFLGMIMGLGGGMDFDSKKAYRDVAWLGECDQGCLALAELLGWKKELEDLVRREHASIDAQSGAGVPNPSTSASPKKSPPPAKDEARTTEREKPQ
# [19] = Tmax in Balb/c mouse at 5 mg/kg, ip administered as single dose measured upto 24 hrs by LC-MS/MS analysis; format: ADME, organism-based; settings: in vivo
# [20] = Cmax in Balb/c mouse at 5 mg/kg, ip administered as single dose measured upto 24 hrs by LC-MS/MS analysis; format: ADME, organism-based; set-up: route intraperitoneal, dose 5 mg/kg, time <=24; settings: in vivo
# [21] = Half life in Balb/c mouse at 2 mg/kg, iv administered as single dose measured upto 24 hrs by LC-MS/MS analysis; format: ADME, organism-based; settings: in vivo
# [22] = Half life in Balb/c mouse at 10 mg/kg, po administered as single dose measured upto 24 hrs by LC-MS/MS analysis; format: ADME, organism-based; settings: in vivo
# [23] = Apparent volume of distribution during terminal phase in Balb/c mouse at 5 mg/kg, ip administered as single dose measured upto 24 hrs by LC-MS/MS analysis; format: ADME, organism-based; settings: in vivo, 5 mg/kg, 24 h
# [24] = test system: Plasmodium falciparum; assay: Antiplasmodial activity against artemisinin-resistant Plasmodium falciparum 6218 assessed as reduction in parasite survival at 700 nM incubated for 6 hrs followed by compound washout thrice and further cultured in compound free medium for 66 hrs by RSA; format: functional, organism-based
# [25] = test system: Plasmodium falciparum; assay: Antiplasmodial activity against artemisinin-resistant Plasmodium falciparum 6320 assessed as reduction in parasite survival at 700 nM incubated for 6 hrs followed by compound washout thrice and further cultured in compound free medium for 66 hrs by RSA; format: functional, organism-based
# Chain of Histone deacetylase 2 (Q92769 whole entry): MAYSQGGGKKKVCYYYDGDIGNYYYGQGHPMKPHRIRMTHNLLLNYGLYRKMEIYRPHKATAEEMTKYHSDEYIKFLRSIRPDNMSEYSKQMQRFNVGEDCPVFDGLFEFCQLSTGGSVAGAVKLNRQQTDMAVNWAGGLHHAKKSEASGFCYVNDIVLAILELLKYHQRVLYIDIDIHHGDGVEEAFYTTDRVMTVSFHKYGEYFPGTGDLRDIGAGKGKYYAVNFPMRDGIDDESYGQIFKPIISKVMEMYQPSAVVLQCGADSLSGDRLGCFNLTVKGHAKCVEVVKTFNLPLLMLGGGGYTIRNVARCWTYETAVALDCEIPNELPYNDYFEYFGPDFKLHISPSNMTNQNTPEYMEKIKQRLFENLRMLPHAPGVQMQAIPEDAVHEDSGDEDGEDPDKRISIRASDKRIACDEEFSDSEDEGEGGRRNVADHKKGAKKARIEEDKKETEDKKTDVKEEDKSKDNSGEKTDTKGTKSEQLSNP
smiles,measurement,setting,value
Cl.O=C(NO)c1cnc(N2CCC3(CCN(Cc4c[nH]c5ccccc45)C3)CC2)nc1,IC50,[1],3.19 nM
same,IC50,[2],1.9 nM
same,IC50,[3],264 nM
same,IC50,[4],241 nM
same,selectivity ratio,[5],83
same,selectivity ratio,[6],75
same,IC50,[7],3.9 nM
same,IC50,[8],2.9 nM
same,half-life,[9],45 min
same,Activity,[10],Active
same,Activity,[11],Non-Toxic
same,Activity,[12],Active
same,IC50,[13],32.3 nM
same,IC50,[14],4.3 nM
same,IC50,[15],52.2 nM
same,IC50,[16],1.8 nM
same,IC50,[17],16 nM
same,IC50,[18],> 10000 nM
same,Tmax,[19],15 min
same,Cmax,[20],108 ng/mL
same,half-life,[21],43.2 min
same,half-life,[22],104 min
same,Vz/F,[23],60.4 L/kg
same,Activity,[24],Active
same,Activity,[25],Active
